Laboratory results from PubChem BioAssay (NCI).
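Assay format: 96-well plates, 48-hour exposure. GI50 is the concentration that inhibits growth by half. TGI: concentration producing complete growth inhibition.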

Assays:
Experiment in all cases: growth of human tumour cells (NCI), 48 h; in the data active = GI50 below about 0.43 µM; inactive = the rest
[1] = test system: KM12 colon
[2] = test system: RPMI-8226 leukemia
[3] = test system: MDA-MB-231 breast
[4] = test system: A498 renal
[5] = test system: MOLT-4 leukemia
[6] = test system: A549 NSCLC
[7] = test system: BT-549 breast
[8] = test system: SK-MEL-2 melanoma
[9] = test system: U251 CNS
[10] = test system: NCI-H460 lung
[11] = test system: SF-295 CNS
[12] = test system: TK-10 renal
[13] = test system: UO-31 renal
[14] = test system: K-562 leukemia
[15] = test system: SF-268 CNS
[16] = test system: SR leukemia
[17] = test system: MCF7 breast
[18] = test system: NCI-H23 lung
[19] = test system: IGROV1 ovarian
[20] = test system: COLO 205 colon
[21] = test system: HCT-116 colon
[22] = test system: MALME-3M melanoma
[23] = test system: HL-60(TB) leukemia
[24] = test system: HT29 colon
[25] = test system: LOX IMVI melanoma
[26] = test system: OVCAR-5 ovarian
[27] = test system: SK-MEL-28 melanoma
[28] = test system: DU-145 prostate
[29] = test system: NCI-H226 lung
[30] = test system: NCI-H522 lung
[31] = test system: SK-OV-3 ovarian
[32] = test system: NCI/ADR-RES ovarian
[33] = test system: 786-0 renal
[34] = test system: T-47D breast
[35] = test system: MDA-MB-468 breast
[36] = test system: SN12C renal
[37] = test system: HOP-92 NSCLC
[38] = test system: HCC-2998 colon
[39] = test system: RXF 393 renal
[40] = test system: SW-620 colon
[41] = test system: HOP-62 NSCLC
[42] = test system: CAKI-1 renal
[43] = test system: PC-3 prostate
[44] = test system: EKVX NSCLC
[45] = test system: HS 578T breast
[46] = test system: SF-539 CNS
[47] = test system: UACC-62 melanoma
[48] = test system: ACHN renal
[49] = test system: UACC-257 melanoma
[50] = test system: SK-MEL-5 melanoma
[51] = test system: CCRF-CEM leukemia
[52] = test system: HCT-15 colon
[53] = test system: SNB-19 CNS
[54] = test system: OVCAR-3 ovarian
[55] = test system: OVCAR-8 ovarian
[56] = test system: OVCAR-4 ovarian
[57] = test system: MDA-MB-435
[58] = test system: M14 melanoma
[59] = test system: SNB-75 CNS

Cc1ccc(/C=C(\C#N)n2nnc3c(F)cccc32)cc1
0.467 µM: TGI [46]
0.941 µM: TGI [54]
29 µM: TGI [18]
> 61.5 µM: TGI [15]
9.15 µM: TGI [19]
2.3 µM: TGI [25]
6.29 µM: TGI [41]
> 62.9 µM: TGI [29]
0.739 µM: TGI [20]
active: GI50 [2] 0.296 µM | GI50 [3] 0.426 µM | GI50 [7] 0.365 µM | GI50 [8] 0.302 µM | GI50 [9] 0.387 µM | GI50 [10] 0.376 µM | GI50 [11] 0.289 µM | GI50 [13] 0.324 µM | GI50 [14] 0.0624 µM | GI50 [16] 0.254 µM | GI50 [20] 0.294 µM | GI50 [21] 0.285 µM | GI50 [22] 0.404 µM | GI50 [23] 0.196 µM | GI50 [24] 0.426 µM | GI50 [25] 0.349 µM | GI50 [26] 0.421 µM | GI50 [28] 0.386 µM | GI50 [30] 0.0844 µM | GI50 [32] 0.111 µM | GI50 [33] 0.424 µM | GI50 [36] 0.416 µM | GI50 [37] 0.0797 µM | GI50 [39] 0.237 µM | GI50 [40] 0.25 µM | GI50 [41] 0.398 µM | GI50 [42] 0.152 µM | GI50 [43] 0.328 µM | GI50 [45] 0.379 µM | GI50 [46] 0.2 µM | GI50 [47] 0.273 µM | GI50 [50] 0.399 µM | GI50 [51] 0.285 µM | GI50 [52] 0.319 µM | GI50 [54] 0.254 µM | GI50 [55] 0.328 µM
> 94.1 µM: TGI [44]
5.24 µM: TGI [26]
> 42.7 µM: TGI [9]
8.71 µM: TGI [35]
50.8 µM: TGI [11]
27 µM: TGI [47]
46.2 µM: TGI [31]
4.31 µM: TGI [16]
3.24 µM: TGI [38]
1.69 µM: TGI [55]
4.36 µM: TGI [50]
1.66 µM: TGI [51]
0.735 µM: TGI [39]
15.8 µM: TGI [33]
7.79 µM: TGI [12]
1.68 µM: TGI [37]
0.519 µM: TGI [23]
3.3 µM: TGI [10]
87 µM: TGI [4]
> 38.9 µM: TGI [43]
4.4 µM: TGI [5]
> 100 µM: TGI [1] | TGI [6] | TGI [8] | TGI [13] | TGI [17] | TGI [24] | TGI [27] | TGI [28] | TGI [34] | TGI [40] | TGI [42] | TGI [45] | TGI [48] | TGI [49] | TGI [52] | TGI [53] | TGI [56]
inactive: GI50 [1] 0.47 µM | GI50 [4] 10.8 µM | GI50 [5] 0.473 µM | GI50 [6] 0.504 µM | GI50 [12] 2.7 µM | GI50 [15] 0.765 µM | GI50 [17] 1.53 µM | GI50 [18] 0.523 µM | GI50 [19] 0.507 µM | GI50 [27] 0.825 µM | GI50 [29] 0.936 µM | GI50 [31] 0.585 µM | GI50 [34] 1.63 µM | GI50 [35] 1.53 µM | GI50 [38] 0.971 µM | GI50 [44] 1.56 µM | GI50 [48] 0.555 µM | GI50 [49] 0.894 µM | GI50 [53] 0.718 µM | GI50 [56] 2.79 µM
0.36 µM: TGI [30]
1.71 µM: TGI [2]
2.25 µM: TGI [36]
2.49 µM: TGI [7]
0.343 µM: TGI [32]
> 35.8 µM: TGI [21]
> 96.2 µM: TGI [22]
2.77 µM: TGI [3]

CN(C)CCCNC(=O)c1cc(NC(=O)c2cc(NC(=O)c3ccc(/C=C/c4ccccc4)cc3)cn2C)cn1C
inactive: GI50 [57] 8.48 µM | GI50 [1] 7.16 µM | GI50 [2] 3.51 µM | GI50 [3] 8.81 µM | GI50 [4] 25.2 µM | GI50 [5] 7.27 µM | GI50 [6] 13.3 µM | GI50 [7] 4.28 µM | GI50 [8] 5.32 µM | GI50 [9] 5.36 µM | GI50 [10] 6.91 µM | GI50 [11] 8.56 µM | GI50 [12] 12.1 µM | GI50 [13] 9.91 µM | GI50 [14] 5.83 µM | GI50 [15] 10.6 µM | GI50 [17] 1.71 µM | GI50 [18] 13.2 µM | GI50 [19] 22.5 µM | GI50 [20] 9.44 µM | GI50 [21] 5.36 µM | GI50 [22] 7.41 µM | GI50 [23] 7.05 µM | GI50 [24] 5.89 µM | GI50 [25] 4.67 µM | GI50 [26] 20.3 µM | GI50 [27] 15.2 µM | GI50 [28] 11.5 µM | GI50 [29] 9.93 µM | GI50 [30] 7.34 µM | GI50 [31] 17.6 µM | GI50 [32] 7.76 µM | GI50 [33] 9.14 µM | GI50 [34] 6.01 µM | GI50 [35] 5.72 µM | GI50 [36] 7.41 µM | GI50 [37] 3.95 µM | GI50 [38] 10.1 µM | GI50 [39] 3.2 µM | GI50 [40] 6.62 µM | GI50 [41] 7.16 µM | GI50 [42] 10.9 µM | GI50 [43] 10.1 µM | GI50 [44] 10.6 µM | GI50 [45] 8.39 µM | GI50 [58] 5.05 µM | GI50 [46] 5.41 µM | GI50 [47] 7.46 µM | GI50 [48] 11.5 µM | GI50 [49] 10.5 µM | GI50 [50] 8.85 µM | GI50 [51] 5.03 µM | GI50 [52] 7.26 µM | GI50 [53] 16.7 µM | GI50 [54] 6.75 µM | GI50 [59] 1.98 µM | GI50 [55] 6.5 µM | GI50 [56] 16.1 µM
19 µM: TGI [14] | TGI [39]
25.7 µM: TGI [52]
18.5 µM: TGI [1]
6.85 µM: TGI [17]
18.7 µM: TGI [55]
16.5 µM: TGI [2] | TGI [7]
24.2 µM: TGI [30]
17.7 µM: TGI [37]
14.9 µM: TGI [40]
16.2 µM: TGI [10]
10.7 µM: TGI [9]
10.1 µM: TGI [58]
> 31.3 µM: TGI [57] | TGI [3] | TGI [4] | TGI [6] | TGI [11] | TGI [12] | TGI [13] | TGI [15] | TGI [18] | TGI [19] | TGI [22] | TGI [26] | TGI [27] | TGI [28] | TGI [29] | TGI [31] | TGI [33] | TGI [34] | TGI [36] | TGI [38] | TGI [42] | TGI [43] | TGI [44] | TGI [45] | TGI [47] | TGI [48] | TGI [49] | TGI [50] | TGI [53] | TGI [56]
20.7 µM: TGI [23]
21.5 µM: TGI [51]
26.4 µM: TGI [20] | TGI [54]
24.6 µM: TGI [59]
25.9 µM: TGI [5]
19.8 µM: TGI [41]
13.4 µM: TGI [21]
8.86 µM: TGI [25]
10.9 µM: TGI [8] | TGI [46]
24.3 µM: TGI [32]
21.1 µM: TGI [24]
14.5 µM: TGI [35]
